Measured values from patent US20260240839A1, “Pharmaceutical composition of tetramethylpyrazine nitrone for injection and a method for manufacture thereof” (GUANGZHOU MAGPIE PHARMACEUTICALS CO., LTD., priority 2022, published 2026).

Assay: Solution stability of tetramethylpyrazine nitrone in different solvents at 25° C.
Assay type: physicochemical
Details: for Total impurities / Content: 25° C.
Experimental: Here, “NA” indicates not measured. “Total impurities” at 0 hour refer to that detected when API of tetramethylpyrazine nitrone is just prepared into a solution.
In 0.1 M HCl, the stability of tetramethylpyrazine nitrone compounds is low, and they begin to degrade as soon as they form a solution. After 3 hours, they completely degrade, and the total content of related substances reaches 100%.

What does the source list for Cc1nc(C)c(/C=[N+](\[O-])C(C)(C)C)nc1C [tetramethylpyrazine nitrone]?
Total impurities (0.1M HCl, 0 h): 59.28%; Content (0.1M HCl, 3 h): 0%; Total impurities (0.1M HCl, 3 h): 100%; Content (0.1M HCl, 24 h): 0%; Total impurities (0.1M HCl, 24 h): 100%; Total impurities (0.1M NaOH, 0 h): 17.78%; Content (0.1M NaOH, 3 h): 81.8%; Total impurities (0.1M NaOH, 3 h): 31.38%; Content (0.1M NaOH, 24 h): 56.54%; Total impurities (0.1M NaOH, 24 h): 49.23%; Content (Pure water, 0 h): 100%; Total impurities (Pure water, 0 h): 0.27%; Content (Pure water, 3 h): 99.71%; Total impurities (Pure water, 3 h): 0.39%; Content (Pure water, 24 h): 98.54%; Total impurities (Pure water, 24 h): 1.16%; Stability in solution (buffer solutions ranging from pH 6.0 to pH 7.4 at 25° C.): relatively stable; Total impurities (pH 4.5 Acetate buffer, 0 h): 8.36%; Content (pH 4.5 Acetate buffer, 3 h): 83.64%; Total impurities (pH 4.5 Acetate buffer, 3 h): 23.6%; Content (pH 4.5 Acetate buffer, 24 h): 60.56%; Total impurities (pH 4.5 Acetate buffer, 24 h): 44.44%; Content (pH 6.0 phosphate buffer, 0 h): 100%; Total impurities (pH 6.0 phosphate buffer, 0 h): 0.33%; Content (pH 6.0 phosphate buffer, 3 h): 98.39%; Total impurities (pH 6.0 phosphate buffer, 3 h): 0.44%; Content (pH 6.0 phosphate buffer, 6 h): 98.65%; Total impurities (pH 6.0 phosphate buffer, 6 h): 0.9%; Content (pH 6.0 phosphate buffer, 24 h): 96.62%; Total impurities (pH 6.0 phosphate buffer, 24 h): 2.19%; Content (pH 6.4 Phosphate buffer, 0 h): 100%; Total impurities (pH 6.4 Phosphate buffer, 0 h): 0.31%; Content (pH 6.4 Phosphate buffer, 3 h): 98.85%; Total impurities (pH 6.4 Phosphate buffer, 3 h): 0.4%; Content (pH 6.4 Phosphate buffer, 24 h): 97.78%; Total impurities (pH 6.4 Phosphate buffer, 24 h): 0.93%; Content (pH 7.4 Phosphate buffer, 0 h): 100%; Total impurities (pH 7.4 Phosphate buffer, 0 h): 0.47%; Content (pH 7.4 Phosphate buffer, 3 h): 100.83%; Total impurities (pH 7.4 Phosphate buffer, 3 h): 0.39%; Content (pH 7.4 Phosphate buffer, 24 h): 99.92%; Total impurities (pH 7.4 Phosphate buffer, 24 h): 1%; Stability in solution (solutions with a pH lower than 6.0): low
